Measurements published in US8884026B2, “Process for preparing rufinamide intermediate” (Laboratorios Lesvi, S.L., priority 2010, dated 2014).

What was measured:
[1] = Grinding experiments in a ball mill, solid phase by PXRD; type: physicochemical; conditions: with solvent or without solvent
Protocol: Grinding experiments were performed in a Retsch MM400 Ball Mill using the following methodology: samples of 30 mg of phase R-5 of Rufinamide were grinded at a frequency of 20 s^−1 for 15 min, with a drop of solvent and without solvent.

[2] = Thermal stability experiments under vacuum, solid phase by PXRD; type: physicochemical; conditions: 40° C., 1 mbar, different periods of time
Protocol: Further advantages of polymorphic form R-5 arose from the significant good thermal stability that has shown over time. […] Thermal stability experiments were performed in a Binder Vacuum oven VD53 using the following methodology. Samples of from R-5 of Rufinamide were kept under vacuum, at 40° C. for different periods of times (at 1 mbar), see table 3 below. There were no significant differences in the PXRD patterns of the solids obtained after the thermal treatment.

Change of polymorphic form by grinding [1]: does not change
Change of polymorphic form under accelerated degradation (thermal stability) [2]: No changes in polymorphic form
Compound: NC(=O)c1cn(Cc2c(F)cccc2F)nn1 [R-5, 1-(2,6-difluorobenzyl)-1H-1,2,3-triazole-4-carboxamide]
